The numbers were not newly measured in patent US9693945B1, “Method of solubilizing a composition of a cleaned photochromic dye suitable for use on human skin” (priority 2016, dated 2017), which cites them from elsewhere.

For the data set, the system named is Salmonella typhimurium. The note with it: background on compounds formerly used in commercial products.

In the case of `NC(=O)/C(=C\c1ccc([N+](=O)[O-])o1)c1ccco1` [furylfuramide], the “Ames test outcome (identified as potential carcinogen)” value is listed as “positive”.

Take `O=P(OCC(Br)CBr)(OCC(Br)CBr)OCC(Br)CBr` (centres unmarked) [tris (2,3-dibromopropyl) phosphate]: the “Ames test outcome (identified as potential carcinogen)” value was “positive”.
